Here are results for two compounds from patent US8685953B2, “Linear and cyclic guanidine derivatives, method of preparation and uses thereof” (Universita Degli Studi Di Siena, priority 2008, dated 2014).

The subject of one experiment is C. albicans. Nature of the experiment: MIC determination, summary over C. albicans strains. Format: cell-based. As to conditions: Candida albicans; text summary over all C. albicans strains; read-out: activity toward C. albicans (MIC). As for the experimental part:
(§1) Determination of MICs by AFST-EUCAST Standard Methodology
(§2) Assay medium. The assay medium was RPMI […] without NaHCO3 and with L-glutamine (Sigma Aldrich, Italy), buffered at pH 7.0 with 0.165 M morpholinepropanesulphonic acid (Sigma Aldrich, Italy) and supplemented with 2% (w/v) glucose. The medium, prepared as double-strength solution, was sterilized by filtration and diluted 1:2 (v/v) with the fungal inoculum prepared in sterile distilled water.
(§3) The yeast isolates were grown on Sabouraud dextrose agar (Oxoid, Madrid, Spain) for 48 h at 37° C. before testing. Suspensions were prepared by combining five distinct colonies of each culture of >1 mm diameter. […]
(§4) Sterile plastic micro titration plates containing flat-bottomed wells were used. […] The minimal inhibitory concentrations (MICs) were determined at 24 h both visually and spectrophotometrically.
(§5) By visual endpoint determination, MICs were determined according to a S-1-R scale, with S (susceptible) indicating an optical clear culture, I (intermediate susceptibility) indicating a slightly hazy culture, and R (resistant) indicating no reduction in turbidity. […]
(§6) Microtitration plates were stirred using a microtitration plate shaker before reading to ensure uniform turbidity. MICs were obtained by measuring the absorbance at 450 nm with a microtitration plate reader. The value of the blank was subtracted from reading of the rest of the wells. […]

A further experiment concerns C. albicans 4T. Nature of the experiment: MIC determination by AFST-EUCAST standard methodology. Format: cell-based, Candida albicans. As to conditions: Candida albicans, 24 h, visually and spectrophotometrically, read-out: Antifungal activity, expressed as MIC50. Here is the method:
as §1, §2
(§7) The yeast isolates were grown on Sabouraud dextrose agar (Oxoid, Madrid, Spain) for 48 h at 37° C. before testing. Suspensions were prepared by combining five distinct colonies of each culture of >1 mm diameter. A spectrophotometric procedure for inoculum preparation was used. The final inoculum suspension, prepared in sterile distilled water, contained between 0.5·10^5 and 2.5·10^5 cfu/mL.
(§8) Stock solutions of test compounds were prepared in 100% dimethyl sulfoxide. Stock solutions were prepared as 100× concentration relative to the highest concentration in the antifungal activity test, and frozen at −70° C. until used.
(§9) Sterile plastic micro titration plates containing flat-bottomed wells were used. The plates contained serial dilution of the antifungal agents with a volume of assay medium of 100 μL/well. Two drug-free medium wells were used as sterility and growth controls. The trays were inoculated with 100 μL/well of the final inoculum, with the exception of sterility control wells. The range of concentrations tested for each drug was 1.25-80 μM. The microtitration plates were incubated at 37° C. for 24 h. The minimal inhibitory concentrations (MICs) were determined at 24 h both visually and spectrophotometrically.
(§10) By visual endpoint determination, MICs were determined according to a S-1-R scale, with S (susceptible) indicating an optical clear culture, I (intermediate susceptibility) indicating a slightly hazy culture, and R (resistant) indicating no reduction in turbidity. The MIC50 was defined as the lowest concentration of a drug which correspond to a S culture.
(§11) Microtitration plates were stirred using a microtitration plate shaker before reading to ensure uniform turbidity. MICs were obtained by measuring the absorbance at 450 nm with a microtitration plate reader. The value of the blank was subtracted from reading of the rest of the wells. Two endpoints were defined for each antifungal agent tested, with MIC80 indicating the lowest drug concentration resulting in a reduction of growth of 80% or more (determined spectrophotometrically) compared with the growth of the control, and MIC50 indicating the lowest drug concentration resulting in a reduction in growth of 50% (determined spectrophotometrically) compared with the growth of the control. The MIC50 was also defined as the spectrophotometric endpoint.

A further experiment relates to C. albicans 15T. Described as above. The settings on record: Candida albicans, 24 h, visually and spectrophotometrically, read-out: Antifungal activity, expressed as MIC50. It is filed as cell-based, Candida albicans. As for the experimental part:
as §1, §2, §7, §8, §9, §10, §11

In another experiment the test system is C. albicans ATCC 60193. Described as above. It is filed as cell-based, Candida albicans. The settings on record: Candida albicans, ATCC60193, 24 h, visually and spectrophotometrically, read-out: Antifungal activity, expressed as MIC50. Here is the method:
as §1, §2, §7, §8, §9, §10, §11

The subject of the next experiment is C. albicans 53T. The description is as above. It is filed as cell-based, Candida albicans. As to conditions: Candida albicans, 24 h, visually and spectrophotometrically, read-out: Antifungal activity, expressed as MIC50. Here is the method:
as §1, §2, §7, §8, §9, §10, §11

For a further experiment, the system named is C. krusei strains. Nature of the experiment: MIC determination, summary over C. krusei strains. Format: cell-based. As to conditions: Pichia kudriavzevii; text summary over C. krusei strains; read-out: activity toward C. krusei strains (MIC). Here is the method:
as §1, §2, §3, §4, §5, §6

Another experiment has as its system C. parapsilosis 64E. In words: MIC determination by AFST-EUCAST standard methodology. It is filed as cell-based. As to conditions: Lodderomyces parapsilosis, 24 h, visually and spectrophotometrically, read-out: Antifungal activity, expressed as MIC50. Here is the method: as §1, §2, §7, §8, §9, §10, §11
A further experiment concerns C. parapsilosis 81E. Described as above. It is filed as cell-based. As to conditions: Lodderomyces parapsilosis, 24 h, visually and spectrophotometrically, read-out: Antifungal activity, expressed as MIC50. As for the experimental part: as §1, §2, §7, §8, §9, §10, §11
Another experiment concerns C. glabrata 70E. Described as above. It is filed as cell-based. As to conditions: Nakaseomyces glabratus; for MIC50: C. glabrata 70E, 24 h, visually and spectrophotometrically, read-out: Antifungal activity, expressed as MIC50. Here is the method: as §1, §2, §7, §8, §9, §10, §11
A further experiment has as its system C. krusei ATCC 14243. The description is as above. Format: cell-based. The settings on record: Pichia kudriavzevii, ATCC14243, 24 h, visually and spectrophotometrically, read-out: Antifungal activity, expressed as MIC50. Here is the method:
as §1, §2, §7, §8, §9, §10, §11

The next experiment concerns C. krusei 193T. Described as above. It is filed as cell-based. The settings on record: Pichia kudriavzevii, 24 h, visually and spectrophotometrically, read-out: Antifungal activity, expressed as MIC50. Here is the method: as §1, §2, §7, §8, §9, §10, §11
Experiment [1] deals with C. parapsilosis ATCC 34136. The description is as above. The settings on record: Lodderomyces parapsilosis, ATCC34136, 24 h, visually and spectrophotometrically, read-out: Antifungal activity, expressed as MIC50. It is filed as cell-based. As for the experimental part:
as §1, §2, §7, §8, §9, §10, §11

The subject of a further experiment is C. tropicalis 86E. The experiment is described as above. It is filed as cell-based. The settings on record: Candida tropicalis, 24 h, visually and spectrophotometrically, read-out: Antifungal activity, expressed as MIC50. Here is the method:
as §1, §2, §7, §8, §9, §10, §11

A further experiment relates to C. parapsilosis. In words: MIC determination, summary over C. parapsilosis. It is filed as cell-based. As to conditions: Lodderomyces parapsilosis, stated jointly with C. glabrata; read-out: activity toward C. parapsilosis (MIC). Here is the method:
as §1, §2, §3, §4, §5, §6

Structures can show the parent of a compound that is named as a salt.

As for `N=C(NCCCCCCCCN1CCCCCCCCNC(=N)NC1=O)NCC1CC1` [Compound 15c, 1-[cyclopropylmethyl]-3-[8-(4-imino-2-oxo-1,3,5-triazacyclotridec-1-yl)octyl]guanidine tri trifluoroacetate], the values for the MIC in the experiment with C. albicans and in the experiment on C. krusei strains were 2.5 µM and 10 µM, respectively. The MIC50 in the experiment with C. albicans 4T worked out at 2.5 µM; in the experiment on C. albicans 15T it was 2.5 µM; in the experiment on C. albicans ATCC 60193, 2.5 µM; in the experiment with C. albicans 53T, 2.5 µM; in the experiment with C. parapsilosis 64E, 20 µM; with C. parapsilosis 81E, 40 µM. In addition, the MIC50 was 40 µM with C. glabrata 70E; 10 µM with C. krusei ATCC 14243; 10 µM in the experiment on C. krusei 193T; above 80 µM in experiment [1]; 1.25 µM in the experiment with C. tropicalis 86E.
On to `CC(C)=CCNC(=N)NCCCCCCCCN1CCCCCCCCNC(=N)NC1=O` [Compound 15e, 1-[γ,γ-dimethylallyl]-3-[8-(4-imino-2-oxo-1,3,5-triazacyclotridec-1-yl)octyl]guanidine tri trifluoroacetate], for which the MIC lay within 20 to 40 µM with C. albicans; 40 to 80 µM in the experiment on C. parapsilosis; 40 to 80 µM in the experiment on C. glabrata 70E (70E, stated jointly with C. parapsilosis, read-out: activity toward C. glabrata (MIC)). For the same compound, the MIC50 in the experiment with C. albicans 4T is 20 µM; in the experiment on C. albicans 15T it was 20 µM; in the experiment on C. albicans ATCC 60193 it was 40 µM; in the experiment on C. albicans 53T it was 20 µM; with C. parapsilosis 64E it was above 80 µM; with C. parapsilosis 81E, 40 µM. Besides, the MIC50 in the experiment with C. glabrata 70E is 80 µM; in the experiment with C. krusei ATCC 14243, 10 µM; in the experiment with C. krusei 193T, 20 µM; in [1], above 80 µM; in the experiment on C. tropicalis 86E, 20 µM.
